Data as given in PMC12150326 (The Journal of Organic Chemistry, 2025).
Where two headings read alike, the source gives them in different places.

Assays:
Format in all cases: cell-based, human
786-0 = tested on: 786-0
In short: (§1)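 Both axial enantiomers of the parent and of the iso series were evaluated in the NCI cancer cell panel at doses of 100 μM, 10 μM, 1 μM, 0.1 μM and 0.01 μM.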

A549/ATCC = tested on: A549/ATCC
In short: as §1

COLO 205 = tested on: COLO 205
In short: as §1

EKVX = tested on: EKVX
In short: (§2)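 Tested at five doses, 100 μM to 0.01 μM in 10-fold steps, in the NCI 60-cell-line panel; TGI responses used for COMPARE analysis.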

HL-60(TB) = tested on: HL-60(TB)
In short: (§3)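 Concentrations tested in the NCI-60 panel were 0.01, 0.1, 1, 10 and 100 μM. The endpoint taken forward was TGI, whose pattern across lines was run through COMPARE alongside earlier tubulin inhibitors.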

HOP-62 = tested on: HOP-62
In short: as §2

HOP-92 = tested on: HOP-92
In short: as §1

HS 578T = tested on: HS 578T
In short: as §1

IGROV1 = tested on: IGROV1
In short: as §1

K-562 = tested on: K-562
In short: as §1

LOX IMVI = tested on: LOX IMVI
In short: as §2

MALME-3M = tested on: MALME-3M
In short: as §1

MDA-MB-231/ATCC = tested on: MDA-MB-231/ATCC
In short: as §1

MDA-MB-435 = tested on: MDA-MB-435
In short: as §2

MOLT-4 = tested on: MOLT-4
In short: as §1

NCI-H460 = tested on: NCI-H460
In short: as §1

NCI-H522 = tested on: NCI-H522
In short: as §1

OVCAR-8 = tested on: OVCAR-8
In short: as §1

PC-3 = tested on: PC-3
In short: as §2

RPMI-8226 = tested on: RPMI-8226
In short: as §1

SK-MEL-5 = tested on: SK-MEL-5
In short: as §1

SN12C = tested on: SN12C
In short: as §1

SNB-19 = tested on: SNB-19
In short: as §2

SNB-75 = tested on: SNB-75
In short: as §1

SR = tested on: SR
In short: as §3

T-47D = tested on: T-47D
In short: as §1

TK-10 = tested on: TK-10
In short: as §2

UACC-62 = tested on: UACC-62
In short: as §2

## COc1cc(C)c(-c2ccc(=O)c(OC)cc2C)c(OC)c1OC (single isomer, unassigned) [(aS)-iso-6]
786-0
  Log10GI50: -4.33 Molar
  Log10LC50: > -4.00 Molar
  Log10TGI: > -4.00 Molar
786-0; Homo sapiens
  GI50: 46.8 µM
786-0; […]
  Log10GI50: -4.33 Molar
A549/ATCC
  Log10GI50: -4.45 Molar
  Log10LC50: > -4.00 Molar
  Log10TGI: > -4.00 Molar
A549/ATCC; Homo sapiens
  GI50: 35.5 µM
A549/ATCC; […]
  Log10GI50: -4.45 Molar
COLO 205
  Log10GI50: -4.66 Molar
  Log10LC50: > -4.00 Molar
  Log10TGI: -4.23 Molar
COLO 205; Homo sapiens
  GI50: 21.9 µM
COLO 205; […]
  Log10GI50: -4.66 Molar
EKVX
  Log10GI50: -4.18 Molar
  Log10LC50: > -4.00 Molar
  Log10TGI: > -4.00 Molar
EKVX; Homo sapiens
  GI50: 66.1 µM
EKVX; […]
  Log10GI50: -4.18 Molar
HL-60(TB)
  Log10GI50: -4.68 Molar
  Log10LC50: > -4.00 Molar
  Log10TGI: -4.02 Molar
HL-60(TB); Homo sapiens
  GI50: 20.9 µM
HL-60(TB); […]
  Log10GI50: -4.68 Molar
HOP-62
  Log10GI50: -4.46 Molar
  Log10LC50: > -4.00 Molar
  Log10TGI: > -4.00 Molar
HOP-62; Homo sapiens
  GI50: 34.7 µM
HOP-62; […]
  Log10GI50: -4.46 Molar
HOP-92
  Log10GI50: -4.99 Molar
  Log10LC50: > -4.00 Molar
  Log10TGI: > -4.00 Molar
HOP-92; Homo sapiens
  GI50: 10.2 µM
HOP-92; […]
  Log10GI50: -4.99 Molar
HS 578T
  Log10GI50: -4.80 Molar
  Log10LC50: > -4.00 Molar
  Log10TGI: -4.19 Molar
HS 578T; Homo sapiens
  GI50: 15.8 µM
HS 578T; […]
  Log10GI50: -4.8 Molar
IGROV1
  Log10GI50: -4.32 Molar
  Log10LC50: > -4.00 Molar
  Log10TGI: > -4.00 Molar
IGROV1; Homo sapiens, IGROV-1
  GI50: 47.9 µM
IGROV1; […]
  Log10GI50: -4.32 Molar
K-562
  Log10GI50: -5.30 Molar
  Log10LC50: > -4.00 Molar
  Log10TGI: > -4.00 Molar
K-562; Homo sapiens, K562
  GI50: 5.01 µM
K-562; […]
  Log10GI50: -5.3 Molar
LOX IMVI
  Log10GI50: -5.18 Molar
  Log10LC50: > -4.00 Molar
  Log10TGI: > -4.00 Molar
LOX IMVI; Homo sapiens
  GI50: 6.61 µM
LOX IMVI; […]
  Log10GI50: -5.18 Molar
MALME-3M
  Log10GI50: -4.42 Molar
  Log10LC50: > -4.00 Molar
  Log10TGI: > -4.00 Molar
MDA-MB-231/ATCC
  Log10GI50: -4.63 Molar
  Log10LC50: > -4.00 Molar
  Log10TGI: > -4.00 Molar
MDA-MB-231/ATCC; Homo sapiens
  GI50: 23.4 µM
MDA-MB-231/ATCC; […]
  Log10GI50: -4.63 Molar
MDA-MB-435
  Log10GI50: -5.46 Molar
  Log10LC50: > -4.00 Molar
  Log10TGI: -4.81 Molar
MDA-MB-435; Homo sapiens
  GI50: 3.47 µM
MDA-MB-435; […]
  Log10GI50: -5.46 Molar
MOLT-4
  Log10GI50: -4.44 Molar
  Log10LC50: > -4.00 Molar
  Log10TGI: > -4.00 Molar
MOLT-4; Homo sapiens
  GI50: 36.3 µM
MOLT-4; […]
  Log10GI50: -4.44 Molar
NCI-H460
  Log10GI50: -4.50 Molar
  Log10LC50: > -4.00 Molar
  Log10TGI: > -4.00 Molar
NCI-H460; Homo sapiens
  GI50: 31.6 µM
NCI-H460; […]
  Log10GI50: -4.5 Molar
NCI-H522
  Log10GI50: -4.69 Molar
  Log10LC50: > -4.00 Molar
  Log10TGI: -4.15 Molar
NCI-H522; Homo sapiens
  GI50: 20.4 µM
NCI-H522; […]
  Log10GI50: -4.69 Molar
OVCAR-8
  Log10GI50: -4.45 Molar
  Log10LC50: > -4.00 Molar
  Log10TGI: > -4.00 Molar
OVCAR-8; Homo sapiens
  GI50: 35.5 µM
OVCAR-8; […]
  Log10GI50: -4.45 Molar
PC-3
  Log10GI50: -4.50 Molar
  Log10LC50: > -4.00 Molar
  Log10TGI: > -4.00 Molar
PC-3; Homo sapiens
  GI50: 31.6 µM
PC-3; […]
  Log10GI50: -4.5 Molar
RPMI-8226
  Log10GI50: -4.38 Molar
  Log10LC50: > -4.00 Molar
  Log10TGI: > -4.00 Molar
RPMI-8226; Homo sapiens
  GI50: 41.7 µM
RPMI-8226; […]
  Log10GI50: -4.38 Molar
SK-MEL-5
  Log10GI50: -4.34 Molar
  Log10LC50: > -4.00 Molar
  Log10TGI: > -4.00 Molar
SK-MEL-5; Homo sapiens
  GI50: 45.7 µM
SK-MEL-5; […]
  Log10GI50: -4.34 Molar
SN12C
  Log10GI50: -4.42 Molar
  Log10LC50: > -4.00 Molar
  Log10TGI: > -4.00 Molar
SN12C; Homo sapiens
  GI50: 38 µM
SN12C; […]
  Log10GI50: -4.42 Molar
SNB-19
  Log10GI50: -4.53 Molar
  Log10LC50: > -4.00 Molar
  Log10TGI: > -4.00 Molar
SNB-19; Homo sapiens
  GI50: 5.37 µM
SNB-19; […]
  Log10GI50: -5.27 Molar
SNB-75
  Log10GI50: -5.27 Molar
  Log10LC50: > -4.00 Molar
  Log10TGI: -4.36 Molar
SNB-75; Homo sapiens
  GI50: 30.9 µM
SNB-75; […]
  Log10GI50: -4.51 Molar
SR
  Log10GI50: -5.24 Molar
  Log10LC50: > -4.00 Molar
  Log10TGI: > -4.00 Molar
SR; Homo sapiens
  GI50: 5.75 µM
SR; […]
  Log10GI50: -5.24 Molar
T-47D
  Log10GI50: -4.58 Molar
  Log10LC50: > -4.00 Molar
  Log10TGI: > -4.00 Molar
T-47D; Homo sapiens, T47D
  GI50: 26.3 µM
T-47D; […]
  Log10GI50: -4.58 Molar
TK-10
  Log10GI50: > -4.00 Molar
  Log10LC50: > -4.00 Molar
  Log10TGI: > -4.00 Molar
TK-10; Homo sapiens
  GI50: > 100 µM
TK-10; […]
  Log10GI50: > -4 Molar
UACC-62
  Log10GI50: -4.78 Molar
  Log10LC50: > -4.00 Molar
  Log10TGI: > -4.00 Molar
UACC-62; Homo sapiens
  GI50: 16.6 µM
UACC-62; […]
  Log10GI50: -4.78 Molar
